Measurements reported in patent publication US9340559B2, “Proteasome inhibitor delanzomib for use in the treatment of lupus” (Cephalon, Inc., priority 2011, dated 2016).

How the values were obtained:
NZM mice [1] = assay: Serum C3 complement ELISA, NZM mice (Example 2)
MRL/lpr mice [2] = assay: Spleen plasma cells by flow cytometry, MRL/lpr mice; details: G6: 1.5 mg/kg ip, 3× wk
NZM mice [3] = assay: Survival, NZM lupus nephritis model, ip dosing (Example 2); assay type: in vivo, mouse; details: G5 1.5 mg/kg ip, 3× wk
MRL/lpr mice [4] = assay: Urinalysis: total urine protein (proteinuria), MRL/lpr mice; assay type: in vivo, mouse; details: G6: 1.5 mg/kg ip, 3× wk
Protocol: Urine samples are acid precipitated for total protein recovery and analysis. Samples for which enough urine remained are used for Uristix® leukouria analysis. Briefly, a standard protein solution is prepared from normal mouse sera and is used as a standard for mouse urinary protein assay by turbidity. Standard preparation is as follows: 0, 5, 10, 15, 20, 30, 40, and 50 μL of a 4 mg/mL mouse sera standard protein solution as provided in the kit are added in duplicate into two columns. PBS is added to individual wells to adjust the final volume to 50 μL. For urine sample preparation, urine samples are centrifuged at 9880×g for 3 minutes using a tabletop micro-centrifuge. Urine supernatant (1-50 μL) is added in duplicate. PBS is added to adjust the volume to 50 μL total. For the turbidity assay: 25 μL of 0.1 N HCl is added into blank columns and 250 μL of 3% sulfosalicyclic acid into the test columns. The microplate is incubated for 10 minutes at RT and plates are read using an ELISA reader with single beam at 450 nm. For the Uristix® strip assay, strips are laid out and labeled. Twenty microliters of urine are placed onto each test strip square and incubated for at least 30 seconds before the result is recorded. For all total urine analysis plate-based assays, values below the limit of detection set by the lowest point along the standard or set by the manufacturer are considered out of range and are not estimated, but assumed the lowest point along the standard curve for that particular assay.

MRL/lpr mice [5] = assay: Survival / mortality, MRL/lpr mice (Example 1); details: G6: 1.5 mg/kg ip, 3× wk; vehicle 92
Protocol: Six week old lupus-prone, female, MRL/lpr (Jackson Labs, #000485) and non-lupus prone control MRL/MpJ (Jackson Labs, #000486) mice are obtained from Jackson Laboratories (Bar Harbor, Me.) at 6-weeks of age. All mice are maintained on a 24 hour light/dark cycle, with food and water available ad libitum. All experimental animal procedures are approved by and in accordance to the regulations of the Institutional Animal Care and Use Committee (IACUC) of Cephalon, Inc; approved IACUC protocol #03-040 and #03-03-041.
Due to this impaired tolerance mechanism, a percentage of all T and B cells that enter the periphery have a high likelihood of responding to self protein/tissues and thus initiate autoimmunity early in life. The MRL/lpr model mice develop several chronic inflammatory disease-like symptoms that are characteristic of early and late lupus including the generation of anti-nuclear antibodies, arthritis, dermatological manifestations, immunocomplex-mediated glomerulonephritis leading to proteinuria and eventual death. Lesser characterized phenomenon are CNS and cardiac manifestations, both of which are more common in humans. […] Mortality is higher in the females and occurs around 25 weeks of age, renal disease includes glomerulonephritis, glomerular infiltrates, sclerosis and vasculitis. Both splenomegaly and lymphomegaly associated with dermatitis can also be observed.
MRL/lpr mice are first randomized, initial bleeds collected, and body weights recorded for baseline measurements (FIG. 1). All mice are individually ear tagged and are monitored throughout the entire experiment (e.g., “Group#-Cage letter-Mouse#”, so “3B5”=Group 3 (G3), cage B, mouse #5). Mice are age-matched and treatment started at 6-8 weeks of age. Cheek bleeds and urine collection continues weekly throughout the experiment. Mice are individually tracked for several parameters including cytokine and ANA levels, proteinuria, body mass, lymphomegaly, general health, and mortality. All parameters are evaluated bi-monthly except mortality which is monitored daily. All groups consist of a minimum of at least 10-12 mice per group. Ex vivo experiments include flow cytometry analyses for plasma cells, serum complement C3 and ANA levels; urine protein and leukocytes, serum cytokine profiling, renal histo pathology, and determination of compound levels (pharmacokinetics (PK)) in the spleen, kidney and plasma. Mice are tracked on an individual basis. For all data, mice are grouped into populations and data graphed as mean±SEM. End-stage readouts are analyzed as described in the MATERIALS AND METHODS section (above) and in FIG. 1.
Vehicle alone is provided orally twice weekly (p.o.). Both proteasome inhibitors are suspended in the vehicle solution. Bi-monthly bleeds and urine are collected and frozen at […] until assayed. End analyses include kidney histology, splenocyte B-cell Elispots, flow cytometry for B and T cell populations, PD markers, serum cytokines, antibody and complement levels. In addition, urine proteinuria is determined for all animals.
In group two (G2), COMPOUND A was administered at a dose of 3 mg/kg iv twice weekly. In group three (G3), COMPOUND A was administered at a dose of 10 mg/kg p.o. twice weekly. […] In the new group five (G5), bortezomib was administered at a dose of 0.3 mg/kg iv twice weekly. Dexamethasone was administered at a dose of 1.5 mg/kg/2d (M, W, F) ip. Vehicle was 3% DMSO/10% Solutol/87% PBS. In those instances in which mice could not be injected via the iv route, agents were administered ip as noted in Table 1.

NZM mice [6] = assay: Urinalysis: total urine protein (proteinuria), NZM mice (Example 2); assay type: in vivo, mouse; details: G5 1.5 mg/kg ip, 3× wk
MRL/lpr mice [7] = assay: Antinuclear antibody (ANA) ELISA (anti-chromatin, anti-Smith Ag, anti-dsDNA IgG), serum of MRL/lpr mice; assay type: in vivo, mouse; details: G6: 1.5 mg/kg ip, 3× wk
Text: For all ANA ELISA assays, values below the limit of detection set by the lowest point along the standard or set by the manufacturer are considered out of range and are not estimated, but assumed the lowest point along the standard curve for that particular assay.

C[C@@H]1C[C@H]2[C@@H]3CCC4=CC(=O)C=C[C@]4(C)[C@@]3(F)[C@@H](O)C[C@]2(C)[C@@]1(O)C(=O)CO [dexamethasone, Dexamethasone, reference compound]
Serum C3 complement AUC, percent change vs vehicle (NZM mice [1]; G5 1.5 mg/kg ip, 3× wk): 45%
p, serum C3 complement levels vs G6 Bortezomib 0.3 mg/kg 2× wk ip (NZM mice [1]; G8 1.5 mg/kg 3× wk ip): p < 0.05
p, serum C3 complement levels vs G7 CTX 50 mg/kg 1× wk ip (NZM mice [1]; G8 1.5 mg/kg 3× wk ip): p < 0.01
EOS plasma cells, percent change vs vehicle (MRL/lpr mice [2]): +25%
EOS survival, percent live mice from original number (NZM mice [3]): 10%
Urine AUC proteinuria, percent change vs vehicle (MRL/lpr mice [4]): −46%
EOS survival, true EOS mouse percentage from starting population (MRL/lpr mice [5]): 83%
Urine proteinuria AUC, percent change vs vehicle (NZM mice [6]): 27%
ANA AUC Smith Ag, percent change vs vehicle (MRL/lpr mice [7]): −45%
ANA AUC chromatin, percent change vs vehicle (MRL/lpr mice [7]): −47%
ANA AUC dsDNA, percent change vs vehicle (MRL/lpr mice [7]): −59%
